Results from article PMC8091115, “Redundancy in Aromatic O-Demethylation and Ring-Opening Reactions in Novosphingobium aromaticivorans and Their Impact in the Metabolism of Plant-Derived Phenolics” (Applied and Environmental Microbiology, 2021).

Columns and labels:
LigM = biological target: T1, LigM (Novosphingobium aromaticivorans, UniProt Q2G4C6); test: HPLC-MS substrate depletion and product formation; assay type: biochemical; details: tetrahydrofolate as methyl acceptor, anaerobic, 30 C, phosphate buffer
T1 construct: gene Saro_2861; full length, N-terminal His8-TEV tag cleaved, from E. coli B834
T1 sequence (Q2G4C6 entry or part of it): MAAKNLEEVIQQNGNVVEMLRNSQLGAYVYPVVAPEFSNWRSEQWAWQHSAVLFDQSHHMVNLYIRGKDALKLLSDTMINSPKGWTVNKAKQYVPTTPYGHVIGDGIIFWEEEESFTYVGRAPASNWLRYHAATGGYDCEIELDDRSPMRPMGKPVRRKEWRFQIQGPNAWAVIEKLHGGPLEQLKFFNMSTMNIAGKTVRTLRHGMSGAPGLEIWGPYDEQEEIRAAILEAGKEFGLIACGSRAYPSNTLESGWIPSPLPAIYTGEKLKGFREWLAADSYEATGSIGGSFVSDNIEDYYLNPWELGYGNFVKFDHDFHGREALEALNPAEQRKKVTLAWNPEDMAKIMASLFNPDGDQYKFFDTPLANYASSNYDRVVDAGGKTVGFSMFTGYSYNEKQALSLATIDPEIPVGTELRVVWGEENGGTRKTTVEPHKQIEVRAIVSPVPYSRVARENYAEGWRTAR

DesA = biological target: T2, DesA (Novosphingobium aromaticivorans, UniProt Q2G5N3); test: HPLC-MS substrate depletion and product formation; assay type: biochemical; details: tetrahydrofolate as methyl acceptor, anaerobic, 30 C, phosphate buffer
T2 construct: gene Saro_2404; full length, N-terminal His8-TEV tag cleaved, from E. coli B834; b91 prints Saro_2402 (probable misprint, Saro_2404 everywhere else)
T2 sequence (Q2G5N3 entry or part of it): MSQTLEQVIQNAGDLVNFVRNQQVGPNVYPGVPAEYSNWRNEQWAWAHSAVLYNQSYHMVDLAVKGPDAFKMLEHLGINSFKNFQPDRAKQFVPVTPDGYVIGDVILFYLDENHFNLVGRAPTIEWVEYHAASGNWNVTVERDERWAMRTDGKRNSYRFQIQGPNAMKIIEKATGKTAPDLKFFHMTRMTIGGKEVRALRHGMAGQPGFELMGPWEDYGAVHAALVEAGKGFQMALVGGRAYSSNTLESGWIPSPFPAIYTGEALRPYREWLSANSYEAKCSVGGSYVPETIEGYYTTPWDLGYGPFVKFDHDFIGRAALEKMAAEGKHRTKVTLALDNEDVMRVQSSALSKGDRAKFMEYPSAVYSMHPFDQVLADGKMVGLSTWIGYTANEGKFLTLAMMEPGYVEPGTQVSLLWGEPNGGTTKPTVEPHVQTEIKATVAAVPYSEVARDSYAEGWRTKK

COc1cc(C(=O)O)cc(O)c1O [3-MGA]
HPLC-MS substrate depletion and product formation (LigM): LigM protein of N. aromaticivorans was able to convert 3-MGA into GA

COc1cc(C(=O)O)ccc1O [vanillic acid]
HPLC-MS substrate depletion and product formation (LigM): able to convert 3-MGA into GA and vanillic acid into PCA at comparable rates
HPLC-MS substrate depletion and product formation (DesA): demethylated both syringic acid and, somewhat more slowly, vanillic acid
